# How the values were obtained:
# [1] = system: ependymoma cells grown in a monolayer (bulk cancer cells); assay: MTT chemosensitivity assay, bulk cancer cells of the Example 1 ependymoma sample; type: cell-based, human; conditions: 1-hour pulse, MTT 24-hours after treatment, FIG. 5
# Method: Single Cell Suspension and Primary Cell Culture. Single-cell suspensions from the ependymoma biopsy was prepared using the gentleMACS™ Dissociator (Miltenyi, Auburn, Calif.), and C Tubes using a standardized, semi-automated protocol based on a combination of mechanical tissue disruption and incubation with a 50% solution 0.025% trypsin and Accutase (Innovative Cell Technologies, San Diego, Calif.). Cells were serially plated in 24-well, 12-well, 6-well, 10-cm treated dishes and cultured to subconfluence in RPMI-1640 medium supplemented with 5% irradiated, heat inactivated, defined fetal bovine serum (Thermofisher/Hyclone), and 50 U of penicillin and 5 μg of streptomycin/mL of medium (Thermofisher/Mediatech).
# (§1) Chemosensitivity assay. Sensitivity and resistance to chemotherapy was assessed using an MTT assay on 1×10^3 cells plated in 5 replicas into 96-well plates. Briefly, equal number of bulk of tumor cells grown in monolayer and cancer stem-like cells CD133(+) three-dimensionally grown in the bioreactor, were plated separately in 96-well dishes and incubated at 37° C. for 24-hours. Then the cells were challenged for a 1-hour pulse with a panel of anticancer drugs as indicated by the oncologist. Each anticancer drug was tested in a range of doses including the clinically relevant dose. An MTT assay was performed 24-hours following chemotherapy treatment to assess cell viability as previously described. A dose response chart was developed in which samples were scored as responsive (60-100% cell kill), moderately responsive (40-60% cell kill), low to moderate responsive (20-40% cell kill), low responsive (10-20% cell kill), and non-responsive (0-10% cell kill).
# (§2) To assess the efficacy of various chemotherapeutic agents on the cancer cell sample collected in Example 2, an MTT assay was performed on […] plated in 5 replicas into 96-well plates. Briefly, equal number of the bulk cancer cells grown in a monolayer and the CD133(+) cancer stem-like cells grown in the HFB were plated separately in 96-well dishes and incubated at 37° C. for 24-hours. Then, each of the cell cultures were challenged for a 1-hour pulse with various chemotherapeutic agents, including cisplatin, oxaliplatin, arabinoside-C, VP-16, busulfan, methotrexate, CPT-11, and doxorubicin. Each chemotherapeutic agent was tested in a range of doses including their respective clinically relevant doses.
# The MTT assay was then performed 24-hours following the chemotherapy treatment to assess cell viability. A dose response chart was developed in which samples were scored as responsive (60-100% cell kill), moderately responsive (40-60% cell kill), low to moderate responsive (20-40% cell kill), low responsive (10-20% cell kill), and non-responsive (0-10% cell kill). This assessment was independently performed for both the bulk cancer cells and the cancer stem-like cells of the ependymoma cancer cell sample.
# [2] = system: CD133(+) cancer stem-like cells grown in the HFB (ependymoma); assay: MTT chemosensitivity assay, cancer stem-like cells of the Example 1 ependymoma sample; type: cell-based, human; conditions: 1-hour pulse, MTT 24-hours after treatment, FIG. 5
# Method: (§3) Three-Dimensional Bioreactor Cell Culture. A hydrodynamic focusing bioreactor (HFB) (Celdyne, Houston Tex.) was used as previously described to proliferate cancer stem-like cells. Culture media, oxygenation, speed, temperature and CO2 were kept consistently constant for ten days. In certain instances, cancer stem-like cells were cultured in the HFB and exposed for 2 to 6 hours with ozone (O3) levels at levels of 0.08 to 0.40 PPM to cause a fluctuation in the cellular redox environment (redox cycle). Ozone was generated with two OREC Model OZONEV1-O ozonizers (Ozone Research and Equipment Corp., Phoenix, Ariz.), with compressed air used as a source of oxygen, and the concentration of ozone within the chambers was monitored throughout the exposure with three Dasibi 1003 AH ambient-air ozone monitors (Dasibi Environmental Corp., Glendale, Calif.). Cells were then counted and 1×10^6 cells were placed in the rotating vessel set at 25 rpm with airflow set at 20% for […]. Cells were then removed and counted again using trypan blue exclusion to determine cellular viability and cell number and plated in 96 wells for chemosensitivity testing. The cells were also reacted with florescent antibodies for phenotypic characterization.
# as §1
# To then expand the immature cancer stem-like cell population of CD 133+ cells present within the ependymoma primary culture, the ependymoma cells were grown in a rotating vessel, as previously described. Briefly, 1×10^6 of the ependymoma cells from a monolayer culture were grown for ten days using a Hydrodynamic Focusing Bioreactor (HFB) (Celdyne, Houston, Tex.) at 25 rpm with airflow set at 20%, and culture media, oxygenation, speed, temperature and CO2 were kept consistently constant for ten day period. Following the ten day period, cells were then removed and counted again from the HFB, and trypan blue exclusion was used to determine cellular viability and cell number. The cells were also reacted with florescent antibodies for phenotypic characterization.
# as §2
# [3] = system: bulk cancer cells (anaplastic ependymoma, WHO grade III); assay: MTT assay, bulk cancer cells, Example 2 anaplastic ependymoma; type: cell-based, human; conditions: FIG. 9
# Method: as §1
# (§4) Similar to the experiments described herein above, the cancer cell sample was initially cultured as a suspension and the cancer cells were immunophenotyped by flow cytometer using anti-CD133 (Milteny Biotech, Auburn, Calif.), -CD34 (Milteny Biotech, Auburn, Calif.), -CD38 (Milteny Biotech, Auburn, Calif.), -CD44 (BD Bioscience, Sparks, Md.), -CD24 (Milteny Biotech, Auburn, Calif.), -CXCR4 (Milteny Biotech, Auburn, Calif.), -OCT3/4 (BD Bioscience, Sparks, Md.), and -Nanog (BD Bioscience, Sparks, Md.).
# (§5) Then, to then expand the immature cancer stem-like cell population of CD133+ cells present within the ependymoma primary culture, the ependymoma cells were grown in a rotating vessel, as describe herein above and as previously described. To assess the efficacy of various chemotherapeutic agents on the cancer cell sample, an MTT assay was the performed as also described herein.
# [4] = system: cancer stem-like cells (anaplastic ependymoma, WHO grade III); assay: MTT assay, cancer stem-like cells, Example 2 anaplastic ependymoma; type: cell-based, human; conditions: FIG. 9
# Method: as §3, §1, §4, §5
# [5] = system: bulk cancer cells (reoccurrence of anaplastic ependymoma); assay: MTT assay, bulk cancer cells from the reoccurrence of the Example 1 ependymoma; type: cell-based, human; conditions: reoccurrence biopsy, FIG. 6
# Method: as §1
# [6] = system: cancer stem-like cells (reoccurrence of anaplastic ependymoma); assay: MTT assay, cancer stem-like cells from the reoccurrence of the Example 1 ependymoma; type: cell-based, human; conditions: reoccurrence biopsy, FIG. 6
# Method: as §3
# (§6) Chemosensitivity assay. Sensitivity and resistance to chemotherapy was assessed using an MTT assay on 1×10^3 cells plated in 5 replicas into 96-well plates. […]
# medulloblastoma cells = assay: MTT assay, Example 5 medulloblastoma cells; type: cell-based, human; conditions: FIG. 15
# Method: as §1
# [7] = system: bulk cancer cells (IDH-1 negative glioblastoma); assay: MTT assay, bulk cancer cells, Example 3 IDH-1 negative glioblastoma; type: cell-based, human; conditions: FIG. 11
# Method: as §1
# [8] = system: cancer stem-like cells (IDH-1 negative glioblastoma); assay: MTT assay, cancer stem-like cells, Example 3 IDH-1 negative glioblastoma; type: cell-based, human; conditions: at the concentration tested, FIG. 11
# Method: as §3, §6
# [9] = system: bulk cancer cells (IDH-1 negative glioblastoma, WHO grade IV); assay: MTT assay, bulk cancer cells, Example 4 IDH-1 negative glioblastoma; type: cell-based, human; conditions: FIG. 13
# Method: as §1
# [10] = system: cancer stem-like cells (IDH-1 negative glioblastoma, WHO grade IV); assay: MTT assay, cancer stem-like cells, Example 4 IDH-1 negative glioblastoma; type: cell-based, human; conditions: FIG. 13
# Method: as §3, §6
# [11] = system: intradural, extramedullary anaplastic diffuse spinal ependymoma, WHO grade III; assay: Clinical course of the Example 1 subject under treatment; type: in vivo, human; conditions: recurring spinal ependymoma
Compound,sensitivity to chemotherapy (MTT cell viability) [1],sensitivity to chemotherapy (MTT cell viability) [2],sensitivity to chemotherapy (MTT cell viability) [3],sensitivity to chemotherapy (MTT cell viability) [4],further results
O=C1[O][Pt]2([NH][C@@H]3CCCC[C@H]3[NH]2)[O]C1=O [oxaliplatin],completely not responsive,completely not responsive,not sensitive,not sensitive,–
CNNCc1ccc(C(=O)NC(C)C)cc1 [procarbazine],–,–,–,–,cell kill [3]: 30%; cell kill [4]: 30%
CN(Cc1cnc2nc(N)nc(N)c2n1)c1ccc(C(=O)N[C@@H](CCC(=O)O)C(=O)O)cc1 [methotrexate],minimally to moderately responsive,minimally to moderately responsive,–,–,–
"S=C=NCc1ccccc1 [BITC, benzyl isothiocyanate]",–,–,not sensitive,not sensitive,sensitivity to chemotherapy (MTT cell viability) [5]: sensitive; sensitivity to chemotherapy (MTT cell viability) [6]: sensitive
N.N.[Cl][Pt][Cl] [cisplatin],sensitive,moderate chemosensitivity,–,–,cell kill [3]: 30%; cell kill [4]: 30%
CS(=O)(=O)OCCCCOS(C)(=O)=O [busulfan],minimally to moderately responsive,minimally to moderately responsive,–,–,–
"COc1cc([C@@H]2c3cc4c(cc3[C@@H](O[C@@H]3O[C@@H]5CO[C@@H](C)O[C@H]5[C@H](O)[C@H]3O)[C@H]3COC(=O)[C@H]23)OCO4)cc(OC)c1O [VP-16, etoposide]",completely not responsive,completely not responsive,–,–,effectiveness at treating the medulloblastoma cells (MTT) (medulloblastoma cells): effective
O=NN(CCCl)C(=O)NC1CCCCC1 [lomustine],–,–,not sensitive,not sensitive,–
"CCc1c2c(nc3ccc(OC(=O)N4CCC(N5CCCCC5)CC4)cc13)-c1cc3c(c(=O)n1C2)COC(=O)[C@]3(O)CC [CPT-11, irinotecan]",sensitive,moderate chemosensitivity,not sensitive,not sensitive,–
Cn1nnc2c(C(N)=O)ncn2c1=O [temozolomide],–,–,–,–,cell kill [7]: 50%; response score (MTT cell viability) [8]: non-responsive (non-responsive (0-10% cell kill)); cell kill [9]: 60%; cell kill [10]: 60%; clinical response of the tumor to treatment [11]: no response
COc1cccc2c1C(=O)c1c(O)c3c(c(O)c1C2=O)C[C@@](O)(C(=O)CO)C[C@@H]3O[C@H]1C[C@H](N)[C@H](O)[C@H](C)O1 [doxorubicin],sensitive,highly sensitive,–,–,–
bevacizumab,–,–,not sensitive,not sensitive,–
Nc1ccn([C@@H]2O[C@H](CO)[C@@H](O)[C@@H]2O)c(=O)n1 [arabinoside-C],completely not responsive,completely not responsive,–,–,–

# Source: patent US9316632B2, “Methods of screening chemotherapeutic agents and treating cancer” (Marshall University Research Corporation, priority 2009, dated 2016)
